According to patent US6559154B2 (priority 2000, dated 2003):

How the values were obtained:
rats = details: rat, in vivo
[1] = cited from earlier work

Structure (SMILES): N=C1NC(O)C2C3OC4(O)OC(C(O)C2(N1)C4O)C3(O)CO (stereo not shown) [TTX, octahydro-12-(hydroxymethyl)-2-imino-5,9:7,10a-dimethano-10aH-(1,3)dioxocino(6,5-d)-pyrimidine-4,7,10,11, 12-pentol]
- effective dosage (rats): 2.5 µg/mg
- solubility in acidic aqueous solution [1]: soluble
- solubility in organic solvents [1]: not soluble
- solubility in water [1]: only slightly soluble
